This note sets out measurements from US4436904A, “Cephalosporins” (Kanto Ishi Pharmaceutical Co., Ltd., priority 1981, dated 1984).

What all share (experiment): Minimum inhibitory concentration (MIC), standard method of the Japanese Chemotherapeutic Association
The subject of experiment [1] is Staphylococcus aureus 209-P. Type of experiment: cell-based. The conditions noted are these: Inoculum size: 10^6 cells/ml, read-out: Minimum Inhibitory Concentration (MIC).
For experiment [2], the system named is Staphylococcus aureus TERAJIMA
Type of experiment: cell-based. The conditions noted are these: Inoculum size: 10^6 cells/ml, read-out: Minimum Inhibitory Concentration (MIC).

Experiment [3] concerns Staphylococcus epidermidis ATCC12228. The format is cell-based. The conditions noted are these: ATCC12228, Inoculum size: 10^6 cells/ml, read-out: Minimum Inhibitory Concentration (MIC).
For experiment [4], the system named is Bacillus subtilis ATCC 6633. Type of experiment: cell-based. The conditions noted are these: ATCC6633, Inoculum size: 10^6 cells/ml, read-out: Minimum Inhibitory Concentration (MIC).
Another experiment deals with Escherichia coli N I H J. The format is cell-based. The conditions noted are these: Inoculum size: 10^6 cells/ml, read-out: Minimum Inhibitory Concentration (MIC).
The test system of the next experiment is Escherichia coli MEGAWA. The format is cell-based. As to conditions: Escherichia coli, Inoculum size: 10^6 cells/ml, read-out: Minimum Inhibitory Concentration (MIC).
A further experiment relates to Proteus vulgaris. The format is cell-based. The conditions noted are these: read-out: Minimum Inhibitory Concentration (MIC).
A further experiment deals with Proteus morganii IID 602. The format is cell-based. As to conditions: Morganella morganii, IID602, Inoculum size: 10^6 cells/ml, read-out: Minimum Inhibitory Concentration (MIC).
In experiment [5] the test system is Pseudomonas aeruginosa IFO 13739. The format is cell-based. As to conditions: IFO13739, Inoculum size: 10^6 cells/ml, read-out: Minimum Inhibitory Concentration (MIC).
Experiment [6] has as its system Pseudomonas aeruginosa IFO 3080. The format is cell-based.
Experiment [7] deals with Pseudomonas pudita IID 5121. The format is cell-based. As to conditions: IID5121, Inoculum size: 10^6 cells/ml, read-out: Minimum Inhibitory Concentration (MIC).
In experiment [8] the test system is Klebsiella pneumoniae IID 865. Type of experiment: cell-based. The conditions noted are these: IID865, Inoculum size: 10^6 cells/ml, read-out: Minimum Inhibitory Concentration (MIC).
Experiment [9] relates to Salmonella enteritidis IID 604. Type of experiment: cell-based. The conditions noted are these: Salmonella enterica, Inoculum size: 10^6 cells/ml, read-out: Minimum Inhibitory Concentration (MIC).
Experiment [10] has as its system Salmonella typhimurium IID 1000. The format is cell-based. As to conditions: Salmonella enterica, Inoculum size: 10^6 cells/ml, read-out: Minimum Inhibitory Concentration (MIC).
The test system of the next experiment is Shigella boydii IID 627. Type of experiment: cell-based. As to conditions: IID627, Inoculum size: 10^6 cells/ml.
Another experiment concerns Shigella sonnei IID 969. The format is cell-based. The conditions noted are these: IID969, Inoculum size: 10^6 cells/ml.
The test system of experiment [11] is Enterobacter aerogenes IID 5206. The format is cell-based. The conditions noted are these: Klebsiella aerogenes, IID5206, Inoculum size: 10^6 cells/ml, read-out: Minimum Inhibitory Concentration (MIC).
Experiment [12] relates to Enterobacter cloacae IID 977. The format is cell-based. As to conditions: IID977, Inoculum size: 10^6 cells/ml, read-out: Minimum Inhibitory Concentration (MIC).
Experiment [13] concerns Serratia marcenscens IFO 12648. Type of experiment: cell-based. The conditions noted are these: IFO12648, Inoculum size: 10^6 cells/ml, read-out: Minimum Inhibitory Concentration (MIC).
Experiment [14] deals with Salmonella paratyphi IID 605. As to conditions: Salmonella enterica, IID605|PARATYPHI, read-out: Minimum Inhibitory Concentration (MIC).
The subject of experiment [15] is Shigella dysenteriae IID 633. The conditions noted are these: IID633, read-out: Minimum Inhibitory Concentration (MIC).

Values after ≈ are worked out from the molar mass of the structure shown. Like-named read-outs stand apart in the source and are kept apart here. Some results are limits rather than exact numbers.

Turning to `CN(C)CCn1nnnc1SCC1=C(C(=O)O)N2C(=O)[C@@H](NC(=O)Cc3csc(N)n3)[C@H]2SC1` [CTM, cefotiam, reference compound], the MIC in experiment [1] (potency concentration) was 0.39 µg/mL (≈ 0.742 µM); in experiment [2] (potency concentration) it was 0.78 µg/mL (≈ 1.48 µM); in experiment [3] (potency concentration), 0.39 µg/mL (≈ 0.742 µM); in [4] (potency concentration) it was 0.39 µg/mL (≈ 0.742 µM); in the experiment on Escherichia coli N I H J (potency concentration) it was below 0.1 µg/mL; with Escherichia coli MEGAWA (potency concentration), 6.25 µg/mL (≈ 11.9 µM). Moreover, the MIC is 0.39 µg/mL (≈ 0.742 µM) with Proteus vulgaris (Inoculum size: 10^6 cells/ml, potency concentration); 0.39 µg/mL (≈ 0.742 µM) in the experiment on Proteus morganii IID 602 (potency concentration); above 100 µg/mL in experiment [5] (potency concentration); above 100 µg/mL in experiment [6] (IFO3080, Inoculum size: 10^6 cells/ml, potency concentration, read-out: Minimum Inhibitory Concentration (MIC)); above 100 µg/mL in experiment [7] (potency concentration); below 0.1 µg/mL in experiment [8] (potency concentration). The MIC in experiment [9] (potency concentration) is 0.2 µg/mL (≈ 0.38 µM); in [10] (potency concentration) it was below 0.1 µg/mL; in the experiment on Shigella boydii IID 627 (potency concentration), below 0.1 µg/mL; against Shigella sonnei IID 969 (potency concentration), below 0.1 µg/mL; in [11] (potency concentration) it was 1.56 µg/mL (≈ 2.97 µM); in experiment [12] (potency concentration), 3.13 µg/mL (≈ 5.95 µM). Moreover, the MIC in experiment [13] (potency concentration) was 25 µg/mL (≈ 47.6 µM); in experiment [14], below 0.1 µg/mL; in [15], below 0.1 µg/mL.

In the case of `Cn1nnnc1SCC1=C(C(=O)O)N2C(=O)C(NC(=O)[C@H](NC(=O)N3CCN(N=C4SCCS4)C3=O)c3ccccc3)C2SC1` (single isomer, unassigned) [KI-6248, sodium 7-{D-(-)-α-[(2-oxo-3-(1,3-dithiolan-2-imino)-imidazolidin-1-yl)-carboxamido]-phenylacetamido}-3-[(1-methyl-1,2,3,4-tetrazol-5-yl)-thiomethyl]-3-cephem-4-carboxylate], the MIC in experiment [1] (weight concentration) is 0.78 µg/mL; in [2] (weight concentration) it was 0.78 µg/mL; in experiment [3] (weight concentration), 0.39 µg/mL; in experiment [4] (weight concentration) it was 0.78 µg/mL; with Escherichia coli N I H J (weight concentration), below 0.1 µg/mL; in the experiment with Escherichia coli MEGAWA (weight concentration), 6.25 µg/mL. Moreover, the MIC in the experiment on Proteus vulgaris was 1.56 µg/mL; in the experiment with Proteus morganii IID 602 (weight concentration) it was 3.13 µg/mL; in experiment [5] (weight concentration) it was 12.5 µg/mL; in [6] (IFO3080, read-out: Minimum Inhibitory Concentration (MIC)), 1.56 µg/mL; in [7] (weight concentration), 25 µg/mL; in experiment [8] (weight concentration), below 0.1 µg/mL. Moreover, the MIC in experiment [9] (weight concentration) came out at 3.13 µg/mL; in experiment [10] (weight concentration) it was 0.78 µg/mL; against Shigella boydii IID 627 (weight concentration), 0.39 µg/mL; against Shigella sonnei IID 969 (weight concentration), 0.78 µg/mL; in [11] (weight concentration) it was 3.13 µg/mL; in experiment [12] (weight concentration) it was 3.13 µg/mL. Further, the MIC in [13] (weight concentration) is 3.13 µg/mL; in [14], 1.56 µg/mL; in experiment [15] it was 0.2 µg/mL.
